Positions count from the first letter of the chain named. pKi: −log10 of the molar value.
Columns and labels:
EcAP [1] = conditions: EcAP vs PafA
EcAP [2] = conditions: ref 39 and 57; cited from earlier work
WT PafA = molecular target: T1, WT PafA (Elizabethkingia meningoseptica, UniProt Q9KJX5); assay: biochemical; conditions: pH 8.0, subsaturating me-pNPP
T1 sequence (Q9KJX5 26-546): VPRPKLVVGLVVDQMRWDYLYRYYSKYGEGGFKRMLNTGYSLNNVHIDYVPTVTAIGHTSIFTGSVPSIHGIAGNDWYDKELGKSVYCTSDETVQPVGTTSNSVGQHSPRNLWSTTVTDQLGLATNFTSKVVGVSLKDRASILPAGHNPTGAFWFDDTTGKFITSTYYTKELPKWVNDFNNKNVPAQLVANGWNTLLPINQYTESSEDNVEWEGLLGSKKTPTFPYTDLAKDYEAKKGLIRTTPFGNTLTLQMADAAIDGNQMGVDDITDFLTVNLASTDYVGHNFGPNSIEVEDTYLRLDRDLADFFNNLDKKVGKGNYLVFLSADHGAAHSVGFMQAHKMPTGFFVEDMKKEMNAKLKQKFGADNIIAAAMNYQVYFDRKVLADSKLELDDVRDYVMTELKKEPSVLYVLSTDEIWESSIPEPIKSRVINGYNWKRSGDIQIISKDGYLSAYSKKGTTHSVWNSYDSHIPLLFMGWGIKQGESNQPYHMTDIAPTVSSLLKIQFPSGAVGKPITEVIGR

T79S PafA = molecular target: T2, T79S PafA (Elizabethkingia meningoseptica, UniProt Q9KJX5, T79S); assay: biochemical; conditions: pH 8.0, subsaturating me-pNPP
T2 sequence (Q9KJX5 26-546 T79S): T1 sequence (Q9KJX5 26-546) with T54S

N100A PafA = molecular target: T3, N100A PafA (Elizabethkingia meningoseptica, UniProt Q9KJX5, N100A); assay: biochemical; conditions: pH 8.0, subsaturating me-pNPP
T3 sequence (Q9KJX5 26-546 N100A): T1 sequence (Q9KJX5 26-546) with N75A

K162A PafA = molecular target: T4, K162A PafA (Elizabethkingia meningoseptica, UniProt Q9KJX5, K162A); assay: biochemical; conditions: pH 8.0, subsaturating me-pNPP
T4 sequence (Q9KJX5 26-546 K162A): T1 sequence (Q9KJX5 26-546) with K137A

R164A PafA = molecular target: T5, R164A PafA (Elizabethkingia meningoseptica, UniProt Q9KJX5, R164A); assay: biochemical; conditions: pH 8.0, subsaturating me-pNPP
T5 sequence (Q9KJX5 26-546 R164A): T1 sequence (Q9KJX5 26-546) with R139A

## O=P(O)(O)O [Pi, inorganic phosphate]
EcAP [1]
  product inhibition of EcAP stronger than that for PafA: more than 3 orders of magnitude
EcAP [2]
  Ki (product inhibition): low micromolar
WT PafA
  pKi: 3.08
T79S PafA
  pKi: 5.02
N100A PafA
  pKi: 2.89
K162A PafA
  pKi: 2.33
R164A PafA
  pKi: < 1.89

## [O]=[W](=[O])([OH])[OH] [tungstate]
WT PafA
  pKi: 5.41
T79S PafA
  pKi: 3.55
N100A PafA
  pKi: 3.24
K162A PafA
  pKi: < 1.89
R164A PafA
  pKi: 2.89

## [O]=[V]([OH])([OH])[OH] [vanadate]
WT PafA
  pKi: 6.17
T79S PafA
  pKi: 4.05
N100A PafA
  pKi: 3.72
K162A PafA
  pKi: 4.10
R164A PafA
  pKi: 3.52

— article PMC5096464 (Journal of the American Chemical Society, 2016)
